Test results from ChEMBL document CHEMBL5260839 (J Med Chem, 2019).
The source made the active and inactive calls. The rule behind the calls is not given here. Peptide text beside a SMILES is read from it. * marks the point of attachment. Cbz = O=C(OCc1ccccc1)*

Experiments:
[1] = tested on: RS4-11; test: cells; details: Homo sapiens, RS4-11, 96 h
[2] = tested on: RS4-11; test: Potency index, ratio of MI-1242 IC50 to test compound IC50 for inhibition of cell growth in human RS4-11 cells incubated for 4 days by lactate dehydrogenase based WST-8 assay; format: functional; details: time 4 day
[3] = tested on: RS4-11; test: Potency index, ratio of MI-1061 IC50 to test compound IC50 for inhibition of cell growth in human RS4-11 cells incubated for 4 days by lactate dehydrogenase based WST-8 assay; format: functional; details: time 4 day
[4] = Toxicity in mouse xenografted with human RS4-11 cells assessed as weight loss at 100 mg/kg, po administered once daily for 5 days; format: organism-based; details: in vivo, 120 h, time 5 day
[5] = tested on: RS4-11; test: Induction of apoptosis in human RS4-11 cells incubated for 24 hrs by Annexin-V/PI staining based flow cytometric analysis; format: functional, cell-based
[6] = tested on: KG-1; test: cells; details: Homo sapiens, KG-1, 96 h
[7] = tested on: MONO-MAC-6; test: cells; details: Homo sapiens, MONO-MAC-6, 96 h
[8] = tested on: MV4-11; test: Inhibition of cell growth in human MV4-11 cells incubated for 4 days in the presence of lenalidomide by Lactate dehydrogenase based WST-8 assay; format: functional; details: time 4.0 day
[9] = tested on: SIG-M5; test: cells; details: Homo sapiens, SIG-M5, 96 h
[10] = tested on: RS4-11; test: Antitumor activity against human RS4-11 cells xenografted in mouse assessed as reduction in tumor growth at 100 mg/kg, po administered daily for 5 days starting from day 26; format: functional, organism-based; details: time 5.0 day
[11] = tested on: MOLM-13; test: cells; details: Homo sapiens, MOLM-13, 96 h
[12] = Toxicity in mouse xenografted with human RS4-11 cells assessed as signs of toxicity at 100 mg/kg, po administered once daily for 5 days; format: organism-based; details: in vivo, 120 h, time 5 day
[13] = tested on: RS4-11; test: Inhibition of cell growth in human RS4-11 cells incubated for 4 days in the presence of lenalidomide by Lactate dehydrogenase based WST-8 assay; format: functional; details: time 4.0 day
[14] = molecular target: T1, E3 ubiquitin-protein ligase Mdm2 (Homo sapiens, UniProt Q00987); test: Inhibition of MDM2 in human RS4-11 cells harbouring wildtype p53 assessed as fold change in p53 accumulation at 3 uM incubated for 4 hrs by Western blot analysis (reference value: 1); format: cell-based
Target sequence in this assay (Q00987 whole entry, looked up): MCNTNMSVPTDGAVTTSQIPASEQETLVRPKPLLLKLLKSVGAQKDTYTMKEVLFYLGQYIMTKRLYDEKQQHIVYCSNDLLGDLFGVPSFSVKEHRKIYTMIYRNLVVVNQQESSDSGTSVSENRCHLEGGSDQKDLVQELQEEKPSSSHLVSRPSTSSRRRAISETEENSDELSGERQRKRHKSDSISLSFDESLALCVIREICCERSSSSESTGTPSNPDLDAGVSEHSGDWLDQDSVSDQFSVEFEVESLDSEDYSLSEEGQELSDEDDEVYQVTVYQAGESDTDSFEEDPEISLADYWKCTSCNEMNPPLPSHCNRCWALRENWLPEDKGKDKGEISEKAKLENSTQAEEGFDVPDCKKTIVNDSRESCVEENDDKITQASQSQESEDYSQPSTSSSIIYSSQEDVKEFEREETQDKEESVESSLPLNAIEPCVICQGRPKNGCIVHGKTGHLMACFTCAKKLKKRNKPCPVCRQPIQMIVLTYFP

[15] = molecular target: T1, E3 ubiquitin-protein ligase Mdm2; test: Inhibition of MDM2 in human RS4-11 cells harbouring wildtype p53 assessed as fold change in MDM2 level at 3 uM incubate for 4 hrs by Western blot analysis (reference value: […]); format: cell-based
Target sequence in this assay (Q00987 whole entry, looked up): as above

[16] = molecular target: T1, E3 ubiquitin-protein ligase Mdm2; test: Binding affinity to recombinant human MDM2 (1 to 118 residues) assessed as inhibition constant using FAM-tagged p-53 based peptide as substrate by fluorescence polarization based assay
Target sequence in this assay (Q00987 whole entry): as the sequence (Q00987 whole entry, looked up) above

[17] = molecular target: T1, E3 ubiquitin-protein ligase Mdm2; test: Inhibition of MDM2 in human RS4-11 cells harbouring wildtype p53 assessed as fold change in MDM2 level at 10 uM incubate for 4 hrs by Western blot analysis (reference value: […]); format: cell-based
Target sequence in this assay (Q00987 whole entry, looked up): as above

[18] = molecular target: T1, E3 ubiquitin-protein ligase Mdm2; test: Inhibition of MDM2 in human RS4-11 cells harbouring wildtype p53 assessed as fold change in p53 accumulation at 10 uM incubated for 4 hrs by Western blot analysis (reference value: […]); format: cell-based
Target sequence in this assay (Q00987 whole entry, looked up): as above

[19] = molecular target: T1, E3 ubiquitin-protein ligase Mdm2; test: Inhibition of MDM2 in human RS4-11 cells harbouring wildtype p53 assessed as fold change in p53 accumulation at 1 uM incubated for 4 hrs by Western blot analysis (reference value: 1); format: cell-based
Target sequence in this assay (Q00987 whole entry, looked up): as above

[20] = molecular target: T1, E3 ubiquitin-protein ligase Mdm2; test: Inhibition of MDM2 in human RS4-11 cells harbouring wildtype p53 assessed as fold change in MDM2 level at 1 uM incubate for 4 hrs by Western blot analysis (reference value: […]); format: cell-based
Target sequence in this assay (Q00987 whole entry, looked up): as above

| Structure (SMILES) | IC50 [1] | further results |
| --- | --- | --- |
| CN1C(=O)CCC(N2Cc3c(C#CCCCNC(=O)c4ccc(NC(=O)[C@@H]5NC6(CCCCC6)[C@@]6(C(=O)Nc7cc(Cl)ccc76)[C@H]5c5cccc(Cl)c5F)cc4)cccc3C2=O)C1=O (some centres not stated) | 1200 nM | – |
| O=C1CCC(N2C(=O)c3cccc(NCCOCCOCCNC(=O)c4ccc(NC(=O)[C@@H]5NC6(CCCCC6)[C@@]6(C(=O)Nc7cc(Cl)ccc76)[C@H]5c5cccc(Cl)c5F)cc4)c3C2=O)C(=O)N1 (some centres not stated) | 7 nM | Ratio IC50 [2]: 10; Ratio IC50 [3]: 10 |
| O=C1CCC(N2C(=O)c3cccc(NCCNC(=O)c4ccc(NC(=O)[C@@H]5NC6(CCCCC6)[C@@]6(C(=O)Nc7cc(Cl)ccc76)[C@H]5c5cccc(Cl)c5F)cc4)c3C2=O)C(=O)N1 (some centres not stated) | 15 nM | – |
| Cc1ncsc1-c1ccc([C@H](C)NC(=O)[C@@H]2C[C@@H](O)CN2C(=O)[C@@H](NC(=O)CCCOCCOCCOCCNC(=O)c2ccc(NC(=O)[C@@H]3NC4(CCCCC4)[C@@]4(C(=O)Nc5cc(Cl)ccc54)[C@H]3c3cccc(Cl)c3F)cc2)C(C)(C)C)cc1 | 340 nM | – |
| O=C1CCC(N2C(=O)c3cccc(NC(=O)c4ccc(NC(=O)[C@@H]5NC6(CCCCC6)[C@@]6(C(=O)Nc7cc(Cl)ccc76)[C@H]5c5cccc(Cl)c5F)cc4)c3C2=O)C(=O)N1 (some centres not stated) | 68.4 nM | – |
| Cc1ncsc1-c1ccc([C@H](C)NC(=O)[C@@H]2C[C@@H](O)CN2C(=O)[C@@H](NC(=O)CCOCCOCCNC(=O)c2ccc(NC(=O)[C@@H]3NC4(CCCCC4)[C@@]4(C(=O)Nc5cc(Cl)ccc54)[C@H]3c3cccc(Cl)c3F)cc2)C(C)(C)C)cc1 | 500 nM | – |
| O=C1CCC(N2C(=O)c3cccc(NCCOCCNC(=O)c4ccc(NC(=O)[C@@H]5NC6(CCCCC6)[C@@]6(C(=O)Nc7cc(Cl)ccc76)[C@H]5c5cccc(Cl)c5F)cc4)c3C2=O)C(=O)N1 (some centres not stated) | 8 nM | – |
| O=C(O)c1ccc(NC(=O)[C@@H]2NC3(CCCCC3)[C@@]3(C(=O)Nc4cc(Cl)ccc43)[C@H]2c2cccc(Cl)c2F)cc1 | – | Activity [4]: Non-Toxic; Activity [5]: Dose-Dependent Effect; IC50 [6]: > 10000 nM; IC50 [7]: > 10000 nM; inhibition [8]: Active; IC50 [9]: 106 nM; Activity [10]: Active; IC50 [11]: 76.8 nM; Activity [12]: Non-Toxic; inhibition [13]: Active |
| O=C1CCC(N2C(=O)c3cccc(NCCCCCCCNC(=O)c4ccc(NC(=O)[C@@H]5NC6(CCCCC6)[C@@]6(C(=O)Nc7cc(Cl)ccc76)[C@H]5c5cccc(Cl)c5F)cc4)c3C2=O)C(=O)N1 (some centres not stated) | 100 nM | – |
| O=C1CCC(N2C(=O)c3cccc(NCCCCCCNC(=O)c4ccc(NC(=O)[C@@H]5NC6(CCCCC6)[C@@]6(C(=O)Nc7cc(Cl)ccc76)[C@H]5c5cccc(Cl)c5F)cc4)c3C2=O)C(=O)N1 (some centres not stated) | 22 nM | – |
| O=C1CCC(N2Cc3ccc(CC#CCCCNC(=O)c4ccc(NC(=O)[C@@H]5NC6(CCCCC6)[C@@]6(C(=O)Nc7cc(Cl)ccc76)[C@H]5c5cccc(Cl)c5F)cc4)cc3C2=O)C(=O)N1 (some centres not stated) | 5 nM | – |
| NS(=O)(=O)OC[C@@H]1C[C@@H](n2ccc3c(N[C@H]4CCc5ccccc54)ncnc32)C[C@@H]1O | – | fold change (FC) [14]: 5.1; fold change (FC) [15]: 2.4 |
| O=C1CCC(N2C(=O)c3cccc(CCCCCNC(=O)c4ccc(NC(=O)[C@@H]5NC6(CCCCC6)[C@@]6(C(=O)Nc7cc(Cl)ccc76)[C@H]5c5cccc(Cl)c5F)cc4)c3C2=O)C(=O)N1 (some centres not stated) | 29 nM | – |
| O=C1CCC(N2Cc3c(C#CCCCNC(=O)c4ccc(NC(=O)[C@H]5NC6(CCCCC6)[C@]6(C(=O)Nc7cc(Cl)ccc76)[C@@H]5c5cccc(Cl)c5F)cc4)cccc3C2=O)C(=O)N1 (some centres not stated) | > 10000 nM | – |
| O=C1CCC(N2Cc3c(C#CCCNC(=O)c4ccc(NC(=O)[C@@H]5NC6(CCCCC6)[C@@]6(C(=O)Nc7cc(Cl)ccc76)[C@H]5c5cccc(Cl)c5F)cc4)cccc3C2=O)C(=O)N1 (some centres not stated) | 3.9 nM | – |
| CNC(=O)c1ccc(NC(=O)[C@@H]2NC3(CCCCC3)[C@@]3(C(=O)Nc4cc(Cl)ccc43)[C@H]2c2cccc(Cl)c2F)cc1 | 89 nM | Ki [16]: 2.7 nM |
| O=C1CCC(N2Cc3cc(CC#CCCCNC(=O)c4ccc(NC(=O)[C@@H]5NC6(CCCCC6)[C@@]6(C(=O)Nc7cc(Cl)ccc76)[C@H]5c5cccc(Cl)c5F)cc4)ccc3C2=O)C(=O)N1 (some centres not stated) | 5 nM | – |
| O=C1CCC(N2C(=O)c3cccc(NCCCNC(=O)c4ccc(NC(=O)[C@@H]5NC6(CCCCC6)[C@@]6(C(=O)Nc7cc(Cl)ccc76)C5c5cccc(Cl)c5F)cc4)c3C2=O)C(=O)N1 (single isomer, unassigned) | 9 nM | – |
| CC(C)C[C@@H](C=O)NC(=O)[C@H](CC(C)C)NC(=O)[C@H](CC(C)C)NC(=O)OCc1ccccc1 (Cbz-Leu-Leu-Leu-aldehyde) | – | fold change (FC) [17]: 2.9; fold change (FC) [18]: 6.9 |
| O=C1CCC(N2Cc3cccc(NCCCCNC(=O)c4ccc(NC(=O)[C@@H]5NC6(CCCCC6)[C@@]6(C(=O)Nc7cc(Cl)ccc76)[C@H]5c5cccc(Cl)c5F)cc4)c3C2=O)C(=O)N1 (some centres not stated) | 5 nM | – |
| O=C1CCC(N2C(=O)c3cccc(NCCOCCOCCOCCNC(=O)c4ccc(NC(=O)[C@@H]5NC6(CCCCC6)[C@@]6(C(=O)Nc7cc(Cl)ccc76)[C@H]5c5cccc(Cl)c5F)cc4)c3C2=O)C(=O)N1 (some centres not stated) | 5 nM | – |
| Cc1ncsc1-c1ccc([C@H](C)NC(=O)[C@@H]2C[C@@H](O)CN2C(=O)[C@@H](NC(=O)CCCCNC(=O)c2ccc(NC(=O)[C@@H]3NC4(CCCCC4)[C@@]4(C(=O)Nc5cc(Cl)ccc54)[C@H]3c3cccc(Cl)c3F)cc2)C(C)(C)C)cc1 | 1200 nM | – |
| O=C1CCC(N2C(=O)c3cccc(NCCCCCNC(=O)c4ccc(NC(=O)[C@@H]5NC6(CCCCC6)[C@@]6(C(=O)Nc7cc(Cl)ccc76)[C@H]5c5cccc(Cl)c5F)cc4)c3C2=O)C(=O)N1 (some centres not stated) | 12 nM | – |
| O=C1CCC(N2C(=O)c3cccc(NCCCCNC(=O)c4ccc(NC(=O)[C@@H]5NC6(CCCCC6)[C@@]6(C(=O)Nc7cc(Cl)ccc76)[C@H]5c5cccc(Cl)c5F)cc4)c3C2=O)C(=O)N1 (some centres not stated) | 10 nM | Ratio IC50 [2]: 10; Ratio IC50 [3]: 10 |
| CC(C)C[C@H](NC(=O)[C@H](CCc1ccccc1)NC(=O)CN1CCOCC1)C(=O)N[C@@H](Cc1ccccc1)C(=O)N[C@@H](CC(C)C)C(=O)[C@@]1(C)CO1 | – | fold change (FC) [19]: 8.5; fold change (FC) [20]: 3.6 |
